Measured values as given in US12643871B2, “Aryl formamide compound containing chiral sulfur oxide or salt thereof, preparation method, herbicidal composition and use thereof” (Qingdao Kingagroot Chemical Compound Co., Ltd., priority 2019, dated 2026).

What was measured:
Assay in all cases: Weeding effect in post-emergence stage
Assay type in all cases: in vivo
Details in all cases: 250 g/ha; 2 leaf stage; 15 days after application; fresh weight control rate
Amaranthus retroflexus = test system: Amaranthus retroflexus
Outline: (§1)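 Post-emergence spray, 2-leaf stage; doses 500–15 g/ha; acetone + Tween 80 + methyl oleate EC (1.5 L/ha) as synergist. Greenhouse 15 d. Readout: fresh weight control rate graded levels 0–5 (5 = above 85%, 0 = below 5%); triplicate means.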

Abutilon theophrasti = test system: Abutilon theophrasti
Outline: as §1

Digitaria sanguinalis = test system: Digitaria sanguinalis
Outline: as §1

Echinochloa crusgali = test system: Echinochloa crusgali
Outline: as §1

| SMILES | weeding effect in post-emergence stage, activity level (growth control rate), Amaranthus retroflexus (Amaranthus retroflexus) | weeding effect in post-emergence stage, activity level (growth control rate), Abutilon theophrasti (Abutilon theophrasti) | weeding effect in post-emergence stage, activity level (growth control rate), Digitaria sanguinalis (Digitaria sanguinalis) | weeding effect in post-emergence stage, activity level (growth control rate), Echinochloa crusgali (Echinochloa crusgali) |
| --- | --- | --- | --- | --- |
| Cc1c(C(=O)Nc2nnnn2C)ccc(S(C)(=O)=O)c1[S@+]([O-])CC1CC1 [Compound 518] | 5 (Level 5: growth control rate is above 85%) | 5 (Level 5: growth control rate is above 85%) | 5 (Level 5: growth control rate is above 85%) | 5 (Level 5: growth control rate is above 85%) |
| Cc1c(C(=O)Nc2nnnn2C)ccc(S(C)(=O)=O)c1[S@+]([O-])CCF [Compound 519] | 5 (Level 5: growth control rate is above 85%) | 5 (Level 5: growth control rate is above 85%) | 5 (Level 5: growth control rate is above 85%) | 5 (Level 5: growth control rate is above 85%) |
| Cc1c(C(=O)Nc2nnnn2C)ccc(S(C)(=O)=O)c1[S@+]([O-])CC(F)(F)F [Compound 520] | 5 (Level 5: growth control rate is above 85%) | 5 (Level 5: growth control rate is above 85%) | 5 (Level 5: growth control rate is above 85%) | 5 (Level 5: growth control rate is above 85%) |
| Cc1c(C(=O)Nc2nnnn2C)ccc(S(C)(=O)=O)c1[S@+]([O-])CC(C)F (some centres unmarked) [Compound 521] | 5 (Level 5: growth control rate is above 85%) | 5 (Level 5: growth control rate is above 85%) | 5 (Level 5: growth control rate is above 85%) | 5 (Level 5: growth control rate is above 85%) |
| Cc1c(C(=O)Nc2nnnn2C)ccc(S(C)(=O)=O)c1[S@+]([O-])CC(F)F [Compound 522] | 5 (Level 5: growth control rate is above 85%) | 5 (Level 5: growth control rate is above 85%) | 5 (Level 5: growth control rate is above 85%) | 5 (Level 5: growth control rate is above 85%) |
| Cc1c(C(=O)Nc2nnnn2C)ccc(S(C)(=O)=O)c1[S@+]([O-])CCCF [Compound 523] | 5 (Level 5: growth control rate is above 85%) | 5 (Level 5: growth control rate is above 85%) | 5 (Level 5: growth control rate is above 85%) | 5 (Level 5: growth control rate is above 85%) |
| Cc1c(C(=O)Nc2nnnn2C)ccc(S(C)(=O)=O)c1[S@+]([O-])CCC(F)(F)F [Compound 524] | 5 (Level 5: growth control rate is above 85%) | 5 (Level 5: growth control rate is above 85%) | 5 (Level 5: growth control rate is above 85%) | 5 (Level 5: growth control rate is above 85%) |
| Cc1c(C(=O)Nc2nnnn2C)ccc(S(C)(=O)=O)c1[S@+]([O-])CCCl [Compound 525] | 5 (Level 5: growth control rate is above 85%) | 5 (Level 5: growth control rate is above 85%) | 5 (Level 5: growth control rate is above 85%) | 5 (Level 5: growth control rate is above 85%) |
| Cc1c(C(=O)Nc2nnnn2C)ccc(S(C)(=O)=O)c1[S@+]([O-])CCCCl [Compound 526] | 5 (Level 5: growth control rate is above 85%) | 5 (Level 5: growth control rate is above 85%) | 5 (Level 5: growth control rate is above 85%) | 5 (Level 5: growth control rate is above 85%) |
| Cc1c(C(=O)Nc2nnnn2C)ccc(S(C)(=O)=O)c1[S@+]([O-])CC#N [Compound 527] | 5 (Level 5: growth control rate is above 85%) | 5 (Level 5: growth control rate is above 85%) | 5 (Level 5: growth control rate is above 85%) | 5 (Level 5: growth control rate is above 85%) |
| COCC[S@@+]([O-])c1c(S(C)(=O)=O)ccc(C(=O)Nc2nnnn2C)c1C [Compound 528] | 5 (Level 5: growth control rate is above 85%) | 5 (Level 5: growth control rate is above 85%) | 5 (Level 5: growth control rate is above 85%) | 5 (Level 5: growth control rate is above 85%) |
| CCC[S@@+]([O-])c1c(C(F)(F)F)ccc(C(=O)Nc2nnc(C)o2)c1OCOC [Compound 536] | 5 (Level 5: growth control rate is above 85%) | 5 (Level 5: growth control rate is above 85%) | 5 (Level 5: growth control rate is above 85%) | 5 (Level 5: growth control rate is above 85%) |
| CCC[S@@+]([O-])c1c(C(F)(F)F)ccc(C(=O)Nc2nnc(C)o2)c1C [Compound 537] | 5 (Level 5: growth control rate is above 85%) | 5 (Level 5: growth control rate is above 85%) | 5 (Level 5: growth control rate is above 85%) | 5 (Level 5: growth control rate is above 85%) |
| CCC[S@@+]([O-])c1c(C(F)(F)F)ccc(C(=O)Nc2nnc(C)o2)c1CC [Compound 538] | 5 (Level 5: growth control rate is above 85%) | 5 (Level 5: growth control rate is above 85%) | 5 (Level 5: growth control rate is above 85%) | 5 (Level 5: growth control rate is above 85%) |
| CCC[S@@+]([O-])c1c(C(F)(F)F)ccc(C(=O)Nc2nnc(C)o2)c1Br [Compound 544] | 5 (Level 5: growth control rate is above 85%) | 5 (Level 5: growth control rate is above 85%) | 5 (Level 5: growth control rate is above 85%) | 5 (Level 5: growth control rate is above 85%) |
| CCC[S@@+]([O-])c1c(C(F)(F)F)ccc(C(=O)Nc2nnc(C)o2)c1I [Compound 545] | 5 (Level 5: growth control rate is above 85%) | 5 (Level 5: growth control rate is above 85%) | 5 (Level 5: growth control rate is above 85%) | 5 (Level 5: growth control rate is above 85%) |
| CCC[S@@+]([O-])c1c(C(F)(F)F)ccc(C(=O)Nc2nnc(C)o2)c1C#N [Compound 546] | 5 (Level 5: growth control rate is above 85%) | 5 (Level 5: growth control rate is above 85%) | 5 (Level 5: growth control rate is above 85%) | 5 (Level 5: growth control rate is above 85%) |
| CCn1nnnc1NC(=O)c1ccc(S(C)(=O)=O)c([S@+]([O-])CC)c1C [Compound 629] | 5 (Level 5: growth control rate is above 85%) | – | 5 (Level 5: growth control rate is above 85%) | 5 (Level 5: growth control rate is above 85%) |
| CCC[S@@+]([O-])c1c(C(F)F)ccc(C(=O)Nc2nnnn2C)c1SC [Compound 867] | 5 (Level 5: growth control rate is above 85%) | – | 5 (Level 5: growth control rate is above 85%) | 5 (Level 5: growth control rate is above 85%) |
